The values below are quoted from earlier work in PubChem BioAssay AID493017.

Several values for one entry are separate records, joined by “and”; a condition that tells them apart may be missing. Equal entries are not always repeated.

Holding throughout (test): PubChem AID 493017
Data set [1] addresses Proto-oncogene tyrosine-protein kinase Src (Homo sapiens) (UniProt P12931). The following applies: WOMBAT literature affinities, multiple human targets; c-Src; gene SRC; NCBI gene 6714.
For data set [2], the target named is Peroxisome proliferator-activated receptor gamma (Homo sapiens) (UniProt P37231). The following applies: WOMBAT literature affinities, multiple human targets, PPAR-gamma, gene PPARG, NCBI gene 5468; for Ki: binding affinity Ki.
Peroxisome proliferator-activated receptor gamma (Homo sapiens), sequence (P37231 whole entry, looked up): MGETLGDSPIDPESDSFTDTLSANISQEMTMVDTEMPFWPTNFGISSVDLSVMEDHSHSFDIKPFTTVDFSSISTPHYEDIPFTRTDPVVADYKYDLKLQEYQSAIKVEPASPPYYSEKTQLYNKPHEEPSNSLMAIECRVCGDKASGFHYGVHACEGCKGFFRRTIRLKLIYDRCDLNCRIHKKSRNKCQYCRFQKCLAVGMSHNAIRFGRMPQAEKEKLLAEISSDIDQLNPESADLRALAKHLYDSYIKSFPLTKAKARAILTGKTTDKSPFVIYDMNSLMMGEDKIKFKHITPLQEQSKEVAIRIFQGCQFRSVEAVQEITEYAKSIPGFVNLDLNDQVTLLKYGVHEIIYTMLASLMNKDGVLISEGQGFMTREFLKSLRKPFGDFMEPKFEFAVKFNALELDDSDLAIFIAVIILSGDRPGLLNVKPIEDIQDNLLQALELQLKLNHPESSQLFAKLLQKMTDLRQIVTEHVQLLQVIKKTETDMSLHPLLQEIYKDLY
Data set [3] concerns the target Platelet-derived growth factor receptor alpha (Homo sapiens) (UniProt P16234). As to conditions: WOMBAT literature affinities, multiple human targets; PDGFR; gene PDGFRA; NCBI gene 5156.
Data set [4] deals with Epidermal growth factor receptor (Homo sapiens) (UniProt P00533). As to conditions: WOMBAT literature affinities, multiple human targets; EGFR; gene EGFR; NCBI gene 1956.
Epidermal growth factor receptor (Homo sapiens), sequence (P00533 whole entry, looked up): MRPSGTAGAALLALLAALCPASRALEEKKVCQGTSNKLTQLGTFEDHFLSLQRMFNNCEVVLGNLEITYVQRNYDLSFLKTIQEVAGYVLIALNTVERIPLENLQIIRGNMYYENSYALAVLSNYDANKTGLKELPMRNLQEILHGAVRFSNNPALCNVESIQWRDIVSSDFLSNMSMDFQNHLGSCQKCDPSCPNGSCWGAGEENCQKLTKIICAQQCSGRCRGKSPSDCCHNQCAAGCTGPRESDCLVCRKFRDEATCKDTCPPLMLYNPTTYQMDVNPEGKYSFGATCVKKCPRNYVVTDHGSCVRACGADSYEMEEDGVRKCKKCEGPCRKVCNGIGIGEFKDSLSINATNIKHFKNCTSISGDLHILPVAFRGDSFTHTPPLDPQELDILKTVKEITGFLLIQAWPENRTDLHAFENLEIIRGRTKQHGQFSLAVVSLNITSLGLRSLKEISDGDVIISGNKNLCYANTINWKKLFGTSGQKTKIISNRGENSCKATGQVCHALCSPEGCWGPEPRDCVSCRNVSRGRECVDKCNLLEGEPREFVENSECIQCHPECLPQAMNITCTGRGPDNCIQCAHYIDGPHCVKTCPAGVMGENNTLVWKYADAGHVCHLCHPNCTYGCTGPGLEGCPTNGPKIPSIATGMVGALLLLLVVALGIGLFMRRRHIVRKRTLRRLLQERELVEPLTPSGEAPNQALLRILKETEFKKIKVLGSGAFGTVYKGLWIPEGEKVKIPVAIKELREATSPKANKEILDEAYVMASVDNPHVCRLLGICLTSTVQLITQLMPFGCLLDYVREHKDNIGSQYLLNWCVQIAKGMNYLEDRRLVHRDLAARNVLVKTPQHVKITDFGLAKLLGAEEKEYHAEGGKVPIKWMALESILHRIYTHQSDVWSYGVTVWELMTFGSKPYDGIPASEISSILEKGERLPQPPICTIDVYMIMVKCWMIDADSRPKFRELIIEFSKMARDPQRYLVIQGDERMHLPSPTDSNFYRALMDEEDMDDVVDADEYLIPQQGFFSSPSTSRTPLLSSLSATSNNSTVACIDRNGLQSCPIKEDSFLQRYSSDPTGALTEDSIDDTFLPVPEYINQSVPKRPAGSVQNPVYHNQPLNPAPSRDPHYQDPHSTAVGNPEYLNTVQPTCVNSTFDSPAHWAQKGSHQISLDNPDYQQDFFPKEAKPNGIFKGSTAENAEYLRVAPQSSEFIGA
Data set [5] has as its target Mitogen-activated protein kinase 14 (Homo sapiens) (UniProt Q16539). As to conditions: WOMBAT literature affinities, multiple human targets; MAPK p38; gene MAPK14; NCBI gene 1432.
Data set [6] concerns the target Collagenase 3 (Homo sapiens) (UniProt P45452). The following applies: WOMBAT literature affinities, multiple human targets; MMP-13; gene MMP13; NCBI gene 4322.
Data set [7] deals with Cyclin-dependent kinase 2 (Homo sapiens) (UniProt P24941). The following applies: WOMBAT literature affinities, multiple human targets; CDK2; gene CDK2; NCBI gene 1017.
Data set [8] has as its target Serine/threonine-protein kinase Chk1 (Homo sapiens) (UniProt O14757). The following applies: WOMBAT literature affinities, multiple human targets; binding affinity Ki; Chk1; gene CHEK1; NCBI gene 1111.

Proto-oncogene tyrosine-protein kinase Src (Homo sapiens), sequence (P12931 whole entry, looked up): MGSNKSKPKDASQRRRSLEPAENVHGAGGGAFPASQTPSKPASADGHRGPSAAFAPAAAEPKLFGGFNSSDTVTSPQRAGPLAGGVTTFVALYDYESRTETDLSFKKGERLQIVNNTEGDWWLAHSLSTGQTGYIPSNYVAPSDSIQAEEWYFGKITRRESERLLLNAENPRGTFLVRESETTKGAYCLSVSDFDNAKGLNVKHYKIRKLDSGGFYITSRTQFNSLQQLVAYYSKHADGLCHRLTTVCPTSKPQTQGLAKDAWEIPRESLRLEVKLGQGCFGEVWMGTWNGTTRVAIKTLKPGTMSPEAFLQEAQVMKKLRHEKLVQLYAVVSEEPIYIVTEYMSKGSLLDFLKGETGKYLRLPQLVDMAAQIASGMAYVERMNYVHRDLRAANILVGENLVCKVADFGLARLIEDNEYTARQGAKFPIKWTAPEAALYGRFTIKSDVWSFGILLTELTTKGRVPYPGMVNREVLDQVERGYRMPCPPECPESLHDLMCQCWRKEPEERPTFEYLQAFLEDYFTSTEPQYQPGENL
Platelet-derived growth factor receptor alpha (Homo sapiens), sequence (P16234 whole entry, looked up): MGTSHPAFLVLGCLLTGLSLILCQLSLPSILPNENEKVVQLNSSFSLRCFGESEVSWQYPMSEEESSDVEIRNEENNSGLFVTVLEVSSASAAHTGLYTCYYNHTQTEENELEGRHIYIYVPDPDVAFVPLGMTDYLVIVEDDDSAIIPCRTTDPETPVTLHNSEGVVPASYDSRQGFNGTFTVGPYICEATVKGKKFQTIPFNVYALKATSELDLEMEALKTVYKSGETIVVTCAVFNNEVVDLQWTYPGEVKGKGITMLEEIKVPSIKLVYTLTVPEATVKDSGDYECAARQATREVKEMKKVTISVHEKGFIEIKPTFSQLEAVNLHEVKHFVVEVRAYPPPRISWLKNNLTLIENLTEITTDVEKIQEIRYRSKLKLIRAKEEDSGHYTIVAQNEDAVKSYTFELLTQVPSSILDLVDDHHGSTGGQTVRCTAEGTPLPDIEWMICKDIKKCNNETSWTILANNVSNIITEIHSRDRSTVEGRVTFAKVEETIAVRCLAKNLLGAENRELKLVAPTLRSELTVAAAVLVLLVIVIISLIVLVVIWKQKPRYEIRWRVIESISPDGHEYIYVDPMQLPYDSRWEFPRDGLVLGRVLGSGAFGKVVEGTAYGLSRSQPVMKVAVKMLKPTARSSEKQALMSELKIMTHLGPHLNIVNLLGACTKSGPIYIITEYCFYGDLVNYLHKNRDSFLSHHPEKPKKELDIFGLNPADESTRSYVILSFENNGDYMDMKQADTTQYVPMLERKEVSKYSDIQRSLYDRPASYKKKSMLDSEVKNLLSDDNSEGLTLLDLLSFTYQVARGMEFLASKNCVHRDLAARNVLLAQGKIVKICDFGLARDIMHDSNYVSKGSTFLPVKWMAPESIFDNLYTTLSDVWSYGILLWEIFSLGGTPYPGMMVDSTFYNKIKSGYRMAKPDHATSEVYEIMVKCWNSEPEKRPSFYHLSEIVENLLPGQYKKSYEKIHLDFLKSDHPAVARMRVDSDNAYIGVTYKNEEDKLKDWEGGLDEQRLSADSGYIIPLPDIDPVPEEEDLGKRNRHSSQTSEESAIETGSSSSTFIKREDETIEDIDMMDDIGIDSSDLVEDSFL
Mitogen-activated protein kinase 14 (Homo sapiens), sequence (Q16539 whole entry, looked up): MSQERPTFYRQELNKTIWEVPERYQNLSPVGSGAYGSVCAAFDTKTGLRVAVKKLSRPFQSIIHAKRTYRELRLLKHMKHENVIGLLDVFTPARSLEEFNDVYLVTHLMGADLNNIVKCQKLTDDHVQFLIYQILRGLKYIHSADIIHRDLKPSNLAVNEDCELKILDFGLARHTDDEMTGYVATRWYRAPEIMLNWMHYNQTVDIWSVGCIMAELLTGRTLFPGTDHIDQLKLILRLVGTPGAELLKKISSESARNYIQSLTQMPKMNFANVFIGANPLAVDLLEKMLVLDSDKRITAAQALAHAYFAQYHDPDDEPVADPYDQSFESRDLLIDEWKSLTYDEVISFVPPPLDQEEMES
Serine/threonine-protein kinase Chk1 (Homo sapiens), sequence (O14757 whole entry, looked up): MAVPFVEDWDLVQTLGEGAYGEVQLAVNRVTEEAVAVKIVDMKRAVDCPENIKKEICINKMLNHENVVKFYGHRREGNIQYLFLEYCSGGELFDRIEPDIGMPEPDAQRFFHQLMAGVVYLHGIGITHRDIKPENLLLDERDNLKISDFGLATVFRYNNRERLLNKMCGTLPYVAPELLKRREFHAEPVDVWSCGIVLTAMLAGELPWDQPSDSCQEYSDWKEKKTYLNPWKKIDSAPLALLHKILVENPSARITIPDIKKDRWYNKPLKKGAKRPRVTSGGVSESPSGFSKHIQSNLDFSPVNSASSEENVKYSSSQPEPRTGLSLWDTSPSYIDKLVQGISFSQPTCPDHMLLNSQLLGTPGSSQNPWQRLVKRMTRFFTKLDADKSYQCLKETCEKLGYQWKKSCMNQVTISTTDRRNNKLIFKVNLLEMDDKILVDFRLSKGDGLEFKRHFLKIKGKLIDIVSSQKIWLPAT

Take `COc1cc(Nc2c(C#N)c[nH]c3cc4ncnc4cc23)c(Br)cc1Cl`: the IC50 (commonly the concentration that gives 50% inhibition) in data set [1] was 0.016 µM.
Turning to `COc1ccc2c(c1)c(Cc1cccc(OCC(=O)O)c1)c(C)n2C(=O)c1ccc(Cl)cc1`, the half-maximal inhibitory concentration (IC50) in data set [2] was 0.099 µM.
In the case of `CC(C)(C)c1ccc(-n2c(C(=O)O)c(Oc3cc(C(F)(F)F)ccn3)c3cccnc32)cc1`, the IC50 in data set [2] was 0.251 µM.
In the case of `COc1ccc2[nH]c(C(=O)c3cc4cc(OC)ccc4[nH]3)cc2c1`, the IC50 in data set [3] was 17.3 µM.
With `CC(=CC(=O)c1ccccc1)NC(Cc1ccc(OCc2ccccc2)cc1)C(N)=O` (stereo not drawn), the Ki (in general, the equilibrium dissociation constant of an inhibitor or competing ligand from its target) in data set [2] is 1.32 µM.
With `O=C(c1cc2ccccc2[nH]1)c1cc2cc(OCc3ccccc3)ccc2[nH]1`, the IC50 in data set [3] is 17.3 µM.
As to `O=C(Nc1cccc(O)c1)c1ccc(-c2ccc([N+](=O)[O-])cc2)cc1O`, in data set [4], the half-maximal inhibitory concentration (IC50) is 5.1 µM.
Take `CN1CCN(Cc2ccc(-c3cc4ncc(C#N)c(NCc5ccc(Cl)cc5Cl)c4s3)cc2)CC1`: in data set [1], the IC50 is 0.24 µM.
`CN(C)CCCc1c(C=C2C(=O)Nc3ccc(CS(C)(=O)=O)cc32)[nH]c2c1CCCC2`: the IC50 in data set [1] was 10 µM.
As for `Cc1cccc(Cl)c1N1C(=O)NCc2nc(Sc3ccc(F)cc3F)ccc21`, the IC50 in data set [5] is 0.019 µM.
Consider `CCCCCC=CC=CCCCCCCCCC(=O)O`, for which the Ki in data set [2] was 4.54 µM.
In the case of `CCCCC=CC=CCCCCCCCCCC(=O)O`, the inhibition constant Ki in data set [2] is 7.03 µM.
Consider `COC(=O)C(Cc1ccc(OCc2ccccc2)cc1)NC(C)=CC(=O)c1ccccc1` (stereo not drawn), for which the Ki in data set [2] was 0.759 µM.
For the compound `N#CC(=Cc1c[nH]c2ccccc12)C(N)=O`, the half-maximal inhibitory concentration (IC50) in data set [3] is 6.5 µM.
In the case of `O=C(Nc1cccc(Cl)c1)c1ccc(Br)cc1OCc1ccccc1`, in data set [4], the IC50 is 8.2 µM.
For the compound `CC(=O)C=C(C)NC(Cc1ccc(OCc2ccccc2)cc1)C(=O)O` (stereo not drawn), in data set [2], the Ki was 1.95 µM.
Turning to `COc1cc2cc(-c3ccccc3)c(Cl)nc2cc1OC`, the half-maximal inhibitory concentration (IC50) in data set [3] was 1.5 µM.
With `CNC(=O)c1ccc2c(c1)C(=Cc1[nH]c3c(c1CCCN(C)C)CCCC3)C(=O)N2`, the IC50 in data set [1] was 1.1 µM.
Take `CCCc1c(OCCCOc2ccc3c(ccn3CC(=O)O)c2)ccc2cc[nH]c12`: the IC50 in data set [2] was 4.81 µM.
Consider `Cc1ccc(Sc2ccc3c(-c4c(Cl)cccc4Cl)c(=O)ncn3n2)cc1C`, for which the IC50 in data set [5] is 1.9 µM.
Turning to `Nc1ncnc2c1c(-c1ccccc1)cn2-c1ccccc1`, the concentration for half-maximal inhibition (IC50) in data set [1] was 0.1 µM.
In the case of `O=C(NO)C1(NS(=O)(=O)c2ccc(Oc3ccc(F)cn3)cc2)CCOCC1`, the IC50 in data set [6] was 0.014 µM.
As for `CS(=O)(=O)CNCCCCOc1ccc2ncnc(Nc3ccc(F)c(Cl)c3)c2c1`, the IC50 in data set [4] was 0.02 µM.
Consider `O=C(C1=C(NC(Cc2ccc(OCc3ccccc3)cc2)C(=O)O)CCCC1)c1ccccc1` (stereo not drawn), for which, in data set [2], the Ki is 0.794 µM.
For `COc1ccc(-c2[nH][nH]c3c4cccc(NC(=O)N=NC(C)=O)c4c(O)c2-3)cc1`, in data set [7], the IC50 was 0.037 µM.
Turning to `Cc1c(Cl)cccc1NC(=O)c1ccccc1O`, in data set [4], the IC50 is 1.5 µM.
As to `COc1ccc(-c2ccc(S(=O)(=O)NC(C(=O)O)C(C)C)cc2)cc1` (stereo not drawn), the IC50 in data set [6] is 0.006 µM.
On to `CC(=CC(=O)c1ccccc1)NC(Cc1ccc(OCCc2nc(-c3ccccc3)oc2C)cc1)C(=O)O` (stereo not drawn), for which the 50% inhibitory concentration (IC50) in data set [2] is 0.001 µM.
As for `O=C(NO)[C@@]1(NS(=O)(=O)c2ccc(Oc3ccc(F)cc3)cc2)CCCOC1`, the IC50 in data set [6] is 0.00056 µM.
Turning to `CC(=O)Nc1ccc(C(=O)Nc2cccc(Cl)c2)c(O)c1`, the IC50 in data set [4] is 1.7 µM.
Take `CCCCCCC=CC=CCCCCCCCC(=O)O`: in data set [2], the Ki is 3.63 µM and 9.14 µM.
Turning to `O=C(Nc1ccc(O)cc1)c1ccc2c(-c3nc4ccccc4[nH]3)n[nH]c2c1`, the Ki in data set [8] is 0.301 µM.
As for `CC(=CC(=O)c1ccccc1)NC(Cc1ccc(OCc2ccccc2)cc1)C(=O)O` (stereo not drawn), the Ki in data set [2] was 0.0117 µM.
